These results are taken from patent US20150057443A1, “Cycloalkyl Amine Compounds” (Prexa Pharmaceuticals, Inc., priority 2013, published 2015).

Some results are limits rather than exact numbers.

The target of one assay is human recombinant DAT (Homo sapiens, UniProt Q01959). In words: DAT radioligand binding assay (scintillation proximity, [3H]WIN-35428). The procedure:
(§1) Affinity of the compounds for monoamine transporters was determined by in vitro radioligand binding assays using cell membrane preparations derived from HEK293 cell lines stably expressing human recombinant DAT, NET or SERT receptor (Suven Life Sciences, Hyderabad, India).
(§2) Stable DAT cell lines were generated following procedures described in Eshelman et al., Molecular Pharmacology 45, 312-316; 1994. Stable NET cell lines were generated following procedures described in Pacholczyk et al., Nature 350, 350-354, 1991 and Galli et al., Journal Exp. Biol. 198, 2197-2212, 1995. Stable SERT cell lines were generated following procedures described in Ramamoorthy et al., Proc Natl Acad Sci USA 90, 2542-246, 1993.
(§3) Cell membranes were obtained from the above-referenced cell lines by manually homogenizing previously frozen cell pellets in Tris-HCl buffer and serially centrifugating and re-extracting the preparations according procedures described in Subbu et al., Journal Pharmacol ExpTher 327, 982-990, 2008.
(§4) A scintillation proximity assay was used to measure receptor binding. Homogenized membrane preparations (final protein concentration 8-15 ug/well) were pre-incubated with WGA PVT SPA beads (0.5 mg/well) for 5 minutes. Binding was initiated by adding high affinity ligands and test compounds (0.1 nM to 10 μM) or reference/positive control ligands to the membrane-bead complex. Plates were incubated for three hours and raw data counts recorded using a liquid scintillation counter (MicroBetaTriLux Counter, Perkin Elmer). Inhibition constants (Ki) were calculated using GraphPad Prism software (version 4.0).
DAT receptor binding was determined using procedures described in Skolnick et al., European Journal of Pharmacology, 461(2-3):99-104, 2003; and Eshleman et al., The Journal of Pharmacology and Experimental Therapeutics 289:877-885, 1999. A mixture of [3H]WIN-35428 (N-methyl 3H-WIN-35428, Perkin Elmer) and bead-membrane complex was added to wells containing test compound. Wells containing nomifensine maleate ([…], Sigma) were used to define non-specific […] binding. Total radioligand was defined by assay buffer containing 1% DMSO in the presence of [3H]WIN-35428. DAT Ki values were calculated using GraphPad Prism software (version 4.0).
On the technique in general: Scintillation proximity formats need no separation of bound from free tracer.

Another assay has as its target T1, human recombinant NET (Homo sapiens, UniProt P23975).
T1 construct: membranes)
Nature of the assay: NET radioligand binding assay (scintillation proximity, [3H]nisoxetine). Conditions: HEK293 cell membranes expressing human recombinant NET; [3H]nisoxetine; SPA; read-out: NET Ki. The procedure: as §1, §2, §3, §4
NET receptor binding was determined using procedures described in Mason et al., The Journal of Pharmacology and Experimental Therapeutics 323:720-729, 2007; and Eshleman et al., The Journal of Pharmacology and Experimental Therapeutics289:877-885, 1999. A mixture of [3H]nisoxetine hydrochloride (N-methyl-[3H]nisoxetine, Perkin Elmer) and bead-membrane complex was added to wells containing test compound. Wells containing unlabeled nisoxetine (100 uM, Sigma) were used to define non-specific NET binding. Total radioligand was defined using assay buffer containing 1% DMSO in the presence of [3H]nisoxetine. NET Ki values were calculated using GraphPad Prism software (version 4.0).

The target of the next assay is T2, human recombinant SERT (Homo sapiens, UniProt P31645).
T2 construct: membranes)
Nature of the assay: SERT radioligand binding assay (scintillation proximity, [3H]citalopram). Conditions: HEK293 cell membranes expressing human recombinant SERT; [3H]citalopram; SPA; read-out: SERT Ki. The procedure: as §1, §2, §3, §4
SERT receptor binding was determined using procedures described in Owens et al., The Journal of Pharmacology and Experimental Therapeutics 283:1305-1322, 1997. A mixture of [3H]citalopram (N-methyl-[3H]citalopram, Perkin Elmer) and bead-membrane complex was added to wells containing test compound. Non-specific binding was determined using wells containing venlafaxine hydrochloride (100 uM, Sigma). Total radioligand was determined using assay buffer containing 1% DMSO in the presence of [3H]citalopram. SERT Ki values were calculated using GraphPad Prism software (version 4.0).

T2 sequence (P31645 whole entry): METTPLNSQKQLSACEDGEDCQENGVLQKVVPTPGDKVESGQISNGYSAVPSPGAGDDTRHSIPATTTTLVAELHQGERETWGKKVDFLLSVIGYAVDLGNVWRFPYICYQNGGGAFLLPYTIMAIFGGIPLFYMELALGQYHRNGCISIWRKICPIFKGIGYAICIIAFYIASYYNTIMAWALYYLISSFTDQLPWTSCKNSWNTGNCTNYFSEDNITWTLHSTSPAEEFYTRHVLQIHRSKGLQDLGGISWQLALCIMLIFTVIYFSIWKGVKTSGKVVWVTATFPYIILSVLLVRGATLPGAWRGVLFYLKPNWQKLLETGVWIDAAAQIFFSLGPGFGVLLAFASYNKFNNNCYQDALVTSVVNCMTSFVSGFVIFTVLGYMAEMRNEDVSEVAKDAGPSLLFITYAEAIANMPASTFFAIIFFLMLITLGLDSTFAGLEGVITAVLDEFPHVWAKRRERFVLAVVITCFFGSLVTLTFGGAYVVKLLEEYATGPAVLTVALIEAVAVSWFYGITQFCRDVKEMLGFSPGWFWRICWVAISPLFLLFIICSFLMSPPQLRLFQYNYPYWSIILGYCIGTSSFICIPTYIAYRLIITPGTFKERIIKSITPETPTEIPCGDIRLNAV
T1 sequence (P23975 whole entry): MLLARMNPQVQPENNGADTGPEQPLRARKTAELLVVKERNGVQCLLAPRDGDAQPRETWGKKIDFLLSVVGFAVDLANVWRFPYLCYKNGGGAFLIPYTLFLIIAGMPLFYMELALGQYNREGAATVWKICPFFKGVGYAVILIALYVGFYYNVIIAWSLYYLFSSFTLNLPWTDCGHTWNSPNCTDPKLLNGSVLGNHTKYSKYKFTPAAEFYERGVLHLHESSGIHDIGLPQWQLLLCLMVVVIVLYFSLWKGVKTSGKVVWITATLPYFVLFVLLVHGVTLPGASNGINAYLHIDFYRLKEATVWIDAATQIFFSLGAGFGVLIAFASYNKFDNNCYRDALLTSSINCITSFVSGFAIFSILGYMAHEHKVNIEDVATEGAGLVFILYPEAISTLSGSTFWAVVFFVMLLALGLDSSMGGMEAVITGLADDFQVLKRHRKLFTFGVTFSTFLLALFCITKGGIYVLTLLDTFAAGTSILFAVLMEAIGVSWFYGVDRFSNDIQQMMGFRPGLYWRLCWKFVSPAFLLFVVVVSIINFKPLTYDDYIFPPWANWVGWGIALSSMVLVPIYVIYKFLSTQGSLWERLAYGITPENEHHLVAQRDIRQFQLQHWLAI
Sequence of human recombinant DAT (Q01959 whole entry): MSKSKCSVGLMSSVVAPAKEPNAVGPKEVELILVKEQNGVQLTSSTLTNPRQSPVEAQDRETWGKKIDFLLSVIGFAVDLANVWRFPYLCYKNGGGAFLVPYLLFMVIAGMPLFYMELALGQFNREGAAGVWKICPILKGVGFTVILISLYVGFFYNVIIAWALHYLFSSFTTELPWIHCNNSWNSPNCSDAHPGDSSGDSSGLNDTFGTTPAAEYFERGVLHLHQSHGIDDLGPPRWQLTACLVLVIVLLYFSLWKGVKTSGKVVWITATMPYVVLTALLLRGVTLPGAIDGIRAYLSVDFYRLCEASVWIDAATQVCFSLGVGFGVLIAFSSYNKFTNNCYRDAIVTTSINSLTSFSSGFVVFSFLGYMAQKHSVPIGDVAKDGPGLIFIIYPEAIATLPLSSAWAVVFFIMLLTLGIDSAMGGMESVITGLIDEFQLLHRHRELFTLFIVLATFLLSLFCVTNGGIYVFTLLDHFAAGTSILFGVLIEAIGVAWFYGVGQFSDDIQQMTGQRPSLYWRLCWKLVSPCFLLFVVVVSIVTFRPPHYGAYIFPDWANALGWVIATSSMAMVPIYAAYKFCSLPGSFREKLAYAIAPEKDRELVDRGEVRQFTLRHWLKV

As a reminder, the Ki is a dissociation constant, usually derived from enzyme kinetics or from competition with a known ligand. On to `OC(CNC1CCC1)C1(c2ccc(Cl)c(Cl)c2)CCC1` (stereo not drawn) [Compound 36, N-{2-[1-(3,4-Dichlorophenyl)cyclobutyl]-2-hydroxyethyl}cyclobutanaminium chloride], for which the inhibitory constant (Ki) at human recombinant DAT lay in the range of 11 to 100 nM; at human recombinant NET, 101 to 500 nM; on human recombinant SERT it was 101 to 500 nM.

On to `OC(CN1CC2CCC1C2)C1(c2ccc(Cl)c(Cl)c2)CCC1` (stereo not drawn) [Compound 25, 2-{2-[1-(3,4-Dichlorophenyl)cyclobutyl]-2-hydroxyethyl}-2-azabicyclo[2.2.1]heptan-2-ium chloride], for which the Ki lay in the range of 11 to 100 nM on human recombinant DAT, 11 to 100 nM at human recombinant NET and 101 to 500 nM at human recombinant SERT.

As for `Clc1cccc(C2(CN3CCCCC3)CCC2)c1` [Compound 2], the Ki at human recombinant DAT, on human recombinant NET and on human recombinant SERT was above 500 nM in each case.

On to `Clc1ccc(C2(CN3CCCCC3)CCC2)cc1Cl` [Compound 3], for which the results for the inhibitory constant (Ki) on human recombinant DAT, on human recombinant NET and at human recombinant SERT were 11 to 100 nM, 11 to 100 nM and 101 to 500 nM, respectively.

Regarding `OC(CN1CCCC(F)C1)C1(c2ccc(Cl)c(Cl)c2)CCC1` (stereo not drawn) [Compound 21, 1-{2-[1-(3,4-Dichlorophenyl)cyclobutyl]-2-hydroxyethyl}-3-fluoropiperidin-1-ium chloride], the Ki on human recombinant DAT was below 10 nM; at human recombinant NET it was 11 to 100 nM; at human recombinant SERT it was above 500 nM.

With `CCCN(CC)CC(O)C1(c2ccc(Cl)c(Cl)c2)CCC1` (stereo not drawn) [Compound 48, {2-[1-(3,4-Dichlorophenyl)cyclobutyl]-2-hydroxyethyl}(ethyl)propylazanium chloride], the results for the inhibitory constant (Ki) at human recombinant DAT, at human recombinant NET and on human recombinant SERT were 11 to 100 nM, 11 to 100 nM and 101 to 500 nM, respectively.

Turning to `O=C(CN1CCCCC1)C1(c2ccccc2)CCC1` [Compound 68, 1-[2-oxo-2-(1-phenylcyclobutyl)ethyl]piperidin-1-ium chloride], the inhibitory constant (Ki) on human recombinant DAT, at human recombinant NET and on human recombinant SERT was above 500 nM throughout.

Take `OC(CN1CCCCC1)C1(c2ccccc2)CCC1` (stereo not drawn) [Compound 5, 1-[2-hydroxy-2-(1-phenylcyclobutyl)ethyl]piperidin-1-ium chloride]: the inhibition constant (Ki) on human recombinant DAT, at human recombinant NET and on human recombinant SERT was above 500 nM throughout.

On to `OC(CN1CCOCC1)C1(c2ccc(Cl)c(Cl)c2)CCC1` (stereo not drawn) [Compound 30, 4-{2-[1-(3,4-Dichlorophenyl)cyclobutyl]-2-hydroxyethyl}morpholin-4-ium chloride], for which the inhibition constant (Ki) is 11 to 100 nM on human recombinant DAT, above 500 nM on human recombinant NET and above 500 nM at human recombinant SERT.

On to `CC(F)C(C)NCC(O)C1(c2ccc(Cl)c(Cl)c2)CCC1` (stereo not drawn) [Compound 42, {2-[1-(3,4-dichlorophenyl)cyclobutyl]-2-hydroxyethyl}(3-fluorobutan-2-yl)azanium chloride], for which the results for the inhibition constant Ki on human recombinant DAT, at human recombinant NET and on human recombinant SERT were 11 to 100 nM, 101 to 500 nM and 101 to 500 nM, respectively.

In the case of `COC(CN1CCCCC1)C1(c2ccc(Cl)c(Cl)c2)CCC1` (stereo not drawn) [Compound 59, 1-{2-[1-(3,4-dichlorophenyl)cyclobutyl]-2-methoxyethyl}piperidin-1-ium chloride], the inhibitory constant (Ki) on human recombinant DAT, on human recombinant NET and on human recombinant SERT was above 500 nM each time.

For `OC(CN1CCCCC1)C1(c2ccc3ccccc3c2)CCC1` (stereo not drawn) [Compound 15, 1-{2-hydroxy-2-[1-(naphthalen-2-yl)cyclobutyl]ethyl}piperidin-1-ium chloride], the Ki was 11 to 100 nM on human recombinant DAT, 11 to 100 nM at human recombinant NET and 101 to 500 nM on human recombinant SERT.

As for `N#CC1CCCN(CC(O)C2(c3ccc(Cl)c(Cl)c3)CCC2)C1` (stereo not drawn) [Compound 32, 1-{2-[1-(3,4-dichlorophenyl)cyclobutyl]-2-hydroxyethyl}piperidine-3-carbonitrile], the Ki was below 10 nM at human recombinant DAT, 101 to 500 nM on human recombinant NET and 11 to 100 nM on human recombinant SERT.

For the compound `OC(CN1CCC(F)(F)CC1)C1(c2ccc(Cl)c(Cl)c2)CCC1` (stereo not drawn) [Compound 24, 1-{2-[1-(3,4-Dichlorophenyl)cyclobutyl]-2-hydroxyethyl}-4,4-difluoropiperidin-1-ium chloride], the Ki was below 10 nM at human recombinant DAT, above 500 nM at human recombinant NET and 101 to 500 nM at human recombinant SERT.

With `CC1(C)COCCN1CC(O)C1(c2ccc(Cl)c(Cl)c2)CCC1` (stereo not drawn) [Compound 31, 4-{2-[1-(3,4-dichlorophenyl)cyclobutyl]-2-hydroxyethyl}-3,3-dimethylmorpholin-4-ium chloride], the inhibitory constant (Ki) was below 10 nM on human recombinant DAT, 11 to 100 nM on human recombinant NET and 11 to 100 nM on human recombinant SERT.

With `CC1(NCC(O)C2(c3ccc(Cl)c(Cl)c3)CCC2)CCC1` (stereo not drawn) [Compound 38, N-{2-[1-(3,4-Dichlorophenyl)cyclobutyl]-2-hydroxyethyl}-1-methylcyclobutan-1-aminium chloride], the inhibitory constant (Ki) at human recombinant DAT is below 10 nM; on human recombinant NET it was 11 to 100 nM; on human recombinant SERT, 101 to 500 nM.

As to `OC(CN1CC2CC1CO2)C1(c2ccc(Cl)c(Cl)c2)CCC1` (stereo not drawn) [Compound 27, 5-{2-[1-(3,4-Dichlorophenyl)cyclobutyl]-2-hydroxyethyl}-2-oxa-5-azabicyclo[2.2.1]heptan-5-ium chloride], the figures for the inhibitory constant (Ki) on human recombinant DAT, on human recombinant NET and at human recombinant SERT were 11 to 100 nM, 101 to 500 nM and above 500 nM, respectively.

`CC(C)(C)NCC(O)C1(c2ccc(Cl)c(Cl)c2)CCC1` (stereo not drawn) [Compound 20, tert-butyl({2-[1-(3,4-dichlorophenyl)cyclobutyl]-2-hydroxyethyl})azanium chloride]: the figures for the Ki on human recombinant DAT, on human recombinant NET and at human recombinant SERT were 11 to 100 nM, 11 to 100 nM and 101 to 500 nM, respectively.

As for `CCN(CC)CC(O)C1(c2ccc(Cl)c(Cl)c2)CCC1` (stereo not drawn) [Compound 18, {2-[1-(3,4-Dichlorophenyl)cyclobutyl]-2-hydroxyethyl}diethylazanium chloride], the inhibition constant (Ki) on human recombinant DAT was 11 to 100 nM; at human recombinant NET it was 11 to 100 nM; on human recombinant SERT it was above 500 nM.
